Source: patent US20200085791A1, “[(PHENYLSULFONYL)OCTAHYDRO-EPIMINOISOINDOL-YL](1H-1,2,3-TRIAZOL-5-YL)METHANONES” (Bayer Pharma Aktiengesellschaft, priority 2016, published 2020)

Molecular target: T1, recombinant human AKR1C3 (Aldo-keto reductase family 1 member C3) (Homo sapiens, UniProt P42330)
T1 construct: GST (cleaved yes); made in house; host or cells: E. coli
T1 sequence (P42330 1-323): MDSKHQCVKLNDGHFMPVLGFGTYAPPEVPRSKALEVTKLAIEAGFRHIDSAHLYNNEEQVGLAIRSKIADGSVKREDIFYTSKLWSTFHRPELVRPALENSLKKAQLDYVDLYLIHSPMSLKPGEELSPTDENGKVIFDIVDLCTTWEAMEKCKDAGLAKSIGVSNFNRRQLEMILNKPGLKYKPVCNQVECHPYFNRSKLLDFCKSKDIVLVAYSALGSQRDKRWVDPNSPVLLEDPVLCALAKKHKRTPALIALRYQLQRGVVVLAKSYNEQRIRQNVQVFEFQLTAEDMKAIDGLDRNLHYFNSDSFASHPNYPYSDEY
Assay: In Vitro Assay 1: AKR1C3-inhibitory activity (Coumberone to Coumberol fluorescence assay)
Format: biochemical
Details: recombinant enzyme, Coumberone 0.3 μM, NADPH 10 μM, 15 min pre-incubation, 4-parameter fit; average or median values
Protocol: In Vitro Assay 1: AKR1C3-Inhibitory Activity
The AKR1C3-inhibitory activity of the substances of the present invention was measured in the AKR1C3 assay described in the paragraphs below.
Essentially, the enzyme activity is measured by quantification of the Coumberol from Coumberone (Halim, M., Yee, D. J., and Sames, D., J. AM. CHEM. SOC. 130, 14123-14128 (2008) and Yee, D. J., Balsanek, V., Bauman, D. R., Penning, T. M., and Sames, D., Proc. Natl. Acad. Sci. USA 103, 13304-13309 (2006)). In this test, the increase of the highly fluorescent Coumberol by NADPH- (nicotinamide adenine dinucleotide phosphate)-dependent reduction of the non-fluorescent Coumberone by AKR1C3 can be determined.
The enzyme used was recombinant human AKR1C3 (Aldo-keto reductase family 1 member C3) (GenBank Accession No. NM_003739). This was expressed in E. coli as GST (glutathione S transferase) fusion protein and purified by glutathione Sepharose affinity chromatography. The GST was removed by digestion with thrombin and subsequent size exclusion chromatography (Dufort, I., Rheault, P., Huang, X F., Soucy, P., and Luu-The, V., Endocrinology 140, 568-574 (1999)).
For the assay, 50 nl of a 100-fold concentrated solution of the test substance in DMSO were pipetted into a black low-volume 384-well microtiter plate (Greiner Bio-One, Frickenhausen, Germany), 2.5 μl of a solution of AKR1C3 in assay buffer [50 mM potassium phosphate buffer pH 7, 1 mM DTT, 0.0022% (w/v) Pluronic F-127, 0.01% BSA (w/v) and protease inhibitor cocktail (Complete, EDTA-free Protease Inhibitor Cocktail from Roche)] were added and the mixture was incubated for 15 min to allow pre-binding of the substances to the enzyme prior to the enzyme reaction. The enzyme reaction was then started by addition of 2.5 μl of a solution of NADPH (20 μM→final concentration in 5 μl of assay volume is 10 μM) and Coumberone (0.6 μM→final concentration in 5 μl of assay volume is 0.3 μM) in assay buffer, and the resulting mixture was incubated at […] for the reaction time of typically 90 min. The concentration of the AKR1C3 and the reaction time was adapted to the respective activity of the enzyme preparation and adjusted such that the assay was carried out in the linear range.
Typical AKR1C3 concentrations were in the region of 1 nM. The reaction was stopped by addition of 2.5 μl of a stop solution consisting of the inhibitor EM-1404 [F. Labrie et al. U.S. Pat. No. 6,541,463, 2003] (3 μM→final concentration in 7.5 μl of assay volume is 1 μM). The fluorescence of the Coumberole was then measured at 520 nm (excitation at 380 nm) using a suitable measuring instrument (Pherastar from BMG Labtechnologies). The intensity of the fluorescence was used as a measure of the amount of Coumberole formed and thus of the enzyme activity of AKR1C3. The data were normalized (enzyme reaction without inhibitor—0% inhibition; all other assay components, but no enzyme=100% inhibition).

`COC(=O)c1cccc(S(=O)(=O)N2[C@@H]3CC[C@H]2[C@@H]2CN(C(=O)c4cnn[nH]4)C[C@@H]23)c1` [Example 56, methyl 3-{[(3aR,4R,7S,7aS)-2-(1H-1,2,3-triazol-5-ylcarbonyl)octahydro-1H-4,7-epiminoisoindol-8-yl]sulfonyl}benzoate] showed an IC50 of 798 nM.
`O=C(c1c[nH]nn1)N1C[C@@H]2[C@H](C1)[C@@H]1CC[C@H]2N1S(=O)(=O)c1cc(Cl)cc(Cl)c1` [Example 4, {(3aR,4S,7R,7aS)-8-[(3,5-dichlorophenyl)sulfonyl]octahydro-2H-4,7-epiminoisoindol-2-yl}(1H-1,2,3-triazol-4-yl)methanone] was tested, and the IC50 was 44 nM.
`O=C(c1cnn[nH]1)N1C[C@@H]2[C@H](C1)[C@H]1CC[C@@H]2N1S(=O)(=O)c1cccc2nonc12` [Example 46, [(3aR,4R,7S,7aS)-8-(2,1,3-benzoxadiazol-4-ylsulfonyl)octahydro-2H-4,7-epiminoisoindol-2-yl](1H-1,2,3-triazol-5-yl)methanone] gave an IC50 of 59 nM.
In the case of `O=C(c1cnn[nH]1)N1C[C@@H]2[C@H](C1)[C@H]1CC[C@@H]2N1S(=O)(=O)c1cc(F)c(F)cc1F` [Example 52, 1H-1,2,3-triazol-5-yl{(3aR,4R,7S,7aS)-8-[(2,4,5-trifluorophenyl)sulfonyl]octahydro-2H-4,7-epiminoisoindol-2-yl}methanone], the IC50 is reported as 21 nM.
`O=C(c1cnn[nH]1)N1C[C@@H]2[C@H](C1)[C@H]1CC[C@@H]2N1S(=O)(=O)c1cccc(Cl)c1Cl` [Example 42, {(3aR,4R,7S,7aS)-8-[(2,3-dichlorophenyl)sulfonyl]octahydro-2H-4,7-epiminoisoindol-2-yl}(1H-1,2,3-triazol-5-yl)methanone] showed an IC50 of 7 nM.
In the case of `O=C(c1cnn[nH]1)N1[C@@H]2CC[C@H]1[C@H]1CN(S(=O)(=O)c3cccc(F)c3)C[C@H]12` [Example 27, {(3aR,4S,7R,7aS)-2-[(3-fluorophenyl)sulfonyl]octahydro-1H-4,7-epiminoisoindol-8-yl}(1H-1,2,3-triazol-5-yl)methanone], the IC50 is reported as 2 nM.
For `NC(=O)c1cccc(S(=O)(=O)N2[C@@H]3CC[C@H]2[C@@H]2CN(C(=O)c4cnn[nH]4)C[C@@H]23)c1` [Example 60, 3-{[(3aR,4R,7S,7aS)-2-(1H-1,2,3-triazol-5-ylcarbonyl)octahydro-1H-4,7-epiminoisoindol-8-yl]sulfonyl}benzamide], the IC50 was 501 nM.
Molecule `O=C(c1c[nH]nn1)N1C[C@@H]2[C@H](C1)[C@@H]1CC[C@H]2N1S(=O)(=O)c1ccccc1F` [Example 14, {(3aR,4S,7R,7aS)-8-[(2-fluorophenyl)sulfonyl]octahydro-2H-4,7-epiminoisoindol-2-yl}(1H-1,2,3-triazol-4-yl)methanone] has an IC50 of 24 nM.
For `O=C(c1cnn[nH]1)N1[C@@H]2CC[C@H]1[C@H]1CN(S(=O)(=O)c3ccccc3C(F)(F)F)C[C@H]12` [Example 29, 1H-1,2,3-triazol-5-yl[(3aR,4S,7R,7aS)-2-{[2-(trifluoromethyl)phenyl]sulfonyl}octahydro-1H-4,7-epiminoisoindol-8-yl]methanone], the IC50 was 9 nM.
In the case of `Cc1ccc(Cl)cc1S(=O)(=O)N1[C@@H]2CC[C@H]1[C@@H]1CN(C(=O)c3cnn[nH]3)C[C@@H]12` [Example 53, {(3aR,4R,7S,7aS)-8-[(5-chloro-2-methylphenyl)sulfonyl]octahydro-2H-4,7-epiminoisoindol-2-yl}(1H-1,2,3-triazol-5-yl)methanone], the IC50 is reported as 2 nM.
With `O=C(c1cnn[nH]1)N1C[C@@H]2[C@H](C1)[C@@H]1CC[C@H]2N1S(=O)(=O)c1ccc(F)c(F)c1` [Example 25, {(3aR,4S,7R,7aS)-8-[(3,4-difluorophenyl)sulfonyl]octahydro-2H-4,7-epiminoisoindol-2-yl}(1H-1,2,3-triazol-5-yl)methanone] the IC50 was 132 nM.
With `CCc1ccc(S(=O)(=O)N2[C@@H]3CC[C@H]2[C@@H]2CN(C(=O)c4cnn[nH]4)C[C@@H]23)cc1` [Example 38, {(3aR,4R,7S,7aS)-8-[(4-ethylphenyl)sulfonyl]octahydro-2H-4,7-epiminoisoindol-2-yl}(1H-1,2,3-triazol-5-yl)methanone] the IC50 was 193 nM.
`N#Cc1c(Cl)cccc1S(=O)(=O)N1[C@@H]2CC[C@H]1[C@@H]1CN(C(=O)c3cnn[nH]3)C[C@@H]12` [Example 61, 2-chloro-6-{[(3aR,4R,7S,7aS)-2-(1H-1,2,3-triazol-5-ylcarbonyl)octahydro-1H-4,7-epiminoisoindol-8-yl]sulfonyl}benzonitrile] was tested, and the IC50 was 84 nM.
`Cc1cccc(S(=O)(=O)N2[C@@H]3CC[C@H]2[C@H]2CN(C(=O)c4cnn[nH]4)C[C@H]23)c1` [Example 23, {(3aR,4S,7R,7aS)-8-[(3-methylphenyl)sulfonyl]octahydro-2H-4,7-epiminoisoindol-2-yl}(1H-1,2,3-triazol-5-yl)methanone] was tested, and the IC50 was 39 nM.
In the case of `O=C(c1c[nH]nn1)N1C[C@@H]2[C@H](C1)[C@@H]1CC[C@H]2N1S(=O)(=O)c1ccccc1Cl` [Example 8, {(3aR,4S,7R,7aS)-8-[(2-chorophenyl)sulfonyl]octahydro-2H-4,7-epiminoisoindol-2-yl}(1H-1,2,3-triazol-4-yl)methanone], the IC50 is reported as 7 nM.
`O=C(c1cnn[nH]1)N1C[C@@H]2[C@H](C1)[C@@H]1CC[C@H]2N1S(=O)(=O)c1ccccc1C(F)(F)F` [Example 1, 1H-1,2,3-triazol-5-yl[(3aR,4S,7R,7aS)-8-{[2-(trifluoromethyl)phenyl]sulfonyl}octahydro-2H-4,7-epiminoisoindol-2-yl]methanone] was tested, and the IC50 was 2 nM.
Molecule `COc1ccccc1S(=O)(=O)N1[C@@H]2CC[C@H]1[C@@H]1CN(C(=O)c3cnn[nH]3)C[C@@H]12` [Example 54, {(3aR,4R,7S,7aS)-8-[(2-methoxyphenyl)sulfonyl]octahydro-2H-4,7-epiminoisoindol-2-yl}(1H-1,2,3-triazol-5-yl)methanone] has an IC50 of 13 nM.
With `O=C(c1cnn[nH]1)N1C[C@@H]2[C@H](C1)[C@H]1CC[C@@H]2N1S(=O)(=O)c1ccc2c(c1)OCO2` [Example 57, [(3aR,4R,7S,7aS)-8-(1,3-benzodioxol-5-ylsulfonyl)octahydro-2H-4,7-epiminoisoindol-2-yl](1H-1,2,3-triazol-5-yl)methanone] the IC50 was 267 nM.
`Nc1cccc(S(=O)(=O)N2[C@@H]3CC[C@H]2[C@@H]2CN(C(=O)c4cnn[nH]4)C[C@@H]23)c1` [Example 69, {(3aR,4R,7S,7aS)-8-[(3-aminophenyl)sulfonyl]octahydro-2H-4,7-epiminoisoindol-2-yl}(1H-1,2,3-triazol-5-yl)methanone] was tested, and the IC50 was 735 nM.
`COc1ccccc1S(=O)(=O)N1[C@@H]2CC[C@H]1[C@H]1CN(C(=O)c3c[nH]nn3)C[C@H]12` [Example 15, {(3aR,4S,7R,7aS)-8-[(2-methoxyphenyl)sulfonyl]octahydro-2H-4,7-epiminoisoindol-2-yl}(1H-1,2,3-triazol-4-yl)methanone] showed an IC50 of 45 nM.
With `Cc1cc(C)cc(S(=O)(=O)N2[C@@H]3CC[C@H]2[C@H]2CN(C(=O)c4cnn[nH]4)C[C@H]23)c1` [Example 24, {(3aR,4S,7R,7aS)-8-[(3,5-dimethylphenyl)sulfonyl]octahydro-2H-4,7-epiminoisoindol-2-yl}(1H-1,2,3-triazol-5-yl)methanone] the IC50 was 66 nM.
Work on `O=C(c1cnn[nH]1)N1C[C@@H]2[C@H](C1)[C@H]1CC[C@@H]2N1S(=O)(=O)c1cccc2nsnc12` [Example 45, [(3aR,4R,7S,7aS)-8-(2,1,3-benzothiadiazol-4-ylsulfonyl)octahydro-2H-4,7-epiminoisoindol-2-yl](1H-1,2,3-triazol-5-yl)methanone] yielded an IC50 of 109 nM.
